In experiment [1] the test system is Rat myocardial cells (H9c2). Briefly: Glucose deprivation (GD)-induced myocardial cell injury model, cck8 cell survival, checkerboard (Example 1). In kind it is cell-based. Conditions: empagliflozin used alone; GD 36-48 h.
Experimental: In this example, a glucose deprivation (GD)-induced myocardial cell injury model was used to evaluate the protective effect of the drug composition on myocardial cells. Rat myocardial cells (H9c2) were purchased from the stem cell bank of the Chinese Academy of Sciences. Myocardial cells were cultured in high-glucose DMEM (containing 10% fetal bovine serum, 1% penicillin/streptomycin) culture medium and placed in an incubator at 37° C. and 5% CO2. After the myocardial cells basically covered the cell culture dish (10 cm), the cells were digested with trypsin and planted in a 96-well plate at a cell density of 8000 cells/well, 100 μL per well. When the cells covered the bottom of the dish, the DMEM culture medium was removed and the plate was washed once with PBS. The compound was diluted to the target concentration with sugar-free and serum-free DMEM, added to the plate, and treated with GD. […] The cell survival rates of empagliflozin (EMPA) 0-100 μM, L-menthol (MEN) 0-200 μM and combined concentrations were tested, and the cell survival rates of single drugs and combined drugs were input into CompuSyn (http://www.combosyn.com) to calculate the synergistic coefficient.
Experiment [2] has as its system TAC-induced heart failure model. As to the kind of experiment: Transverse aortic constriction (TAC)-induced heart failure model (Example 4). Format: in vivo, C57/6J male mice. On the procedure:
The transverse aortic constriction (TAC) model is the most commonly used disease model of chronic ventricular hypertrophy, which is used to simulate hypertrophic cardiomyopathy, heart failure, and hypertensive heart disease caused by hypertension or increased intraventricular pressure.
Nine-week-old C57/6J male mice were divided into five groups (sham group, TAC group, 30 mg/kg cmpagliflozin group (E30), 10 mg/kg empagliflozin+15 mg/kg menthol group (E10+M15), and 30 mg/kg empagliflozin+45 mg/kg menthol group (E30+M45)).
Experimental process of aortic arch constriction surgery: hair was removed from the surgical area from the neck to the anterior chest of the experimental mouse, and the surgical area was disinfected with iodine. The neck and chest were opened in the midline, the muscles were bluntly separated, the incision was retracted with retractors, the thymus was dissected, and the aortic arch was exposed. The innominate artery, left common carotid artery, and left subclavian artery were found along the aortic arch. The thread was passed between the right innominate artery and the left common carotid artery, and the constriction needle was paced parallel to the aortic arch and then the thread was tied a knot. After tightening the thread, the constriction needle was slowly withdrawn, that is, quantitative constriction was formed in the aortic arch. The chest cavity was closed, the skin on the neck and chest was sutured and disinfected with iodine. Two weeks after the operation, after confirming the hypertrophy of the heart through cardiac function test, drug administration started, and continued for 4 weeks. The drug administration group was gavaged once a day in the morning, and the sham group and TAC group were gavaged with the same amount of drinking water every morning.
The survival of mice was recorded during the experiment. After 4 weeks of continuous administration, the exercise tolerance of experimental mice was evaluated by rotarod test, suspension test and grip strength test. The rotarod test evaluated the maximum tolerance time of mice at a speed of 35 rpm, the suspension test evaluated the maximum tolerance time of mice forearm suspension, and the grip strength test evaluated the maximum grip strength of mice forepaws. […] After the experiment, the mice were euthanized, the hearts were weighed, the heart-body weight ratio was calculated, and then the hearts were fixed, paraffin-embedded, sliced, and Masson-stained. ImageJ was used to quantify the fibrosis area and calculate the degree of cardiac fibrosis. Graph Pad software was used for data processing and significant differences were calculated (OneWayANOVA was used between multiple groups, and Student's t test was used between two groups).

Experiment [3] deals with PGC-1α, PPARα, CPT1b. As to the kind of experiment: Western blotting of fatty acid metabolism proteins (Example 6). In kind it is cell-based, Rat. As to conditions: 48 h; menthol 200 μM alone or 50 μM empagliflozin + 200 μM menthol. On the procedure: 2. Western blotting. H9c2 cells were seeded in a 12-well plate. After 48 hours of drug treatment, the cells were harvested and the total protein in the cells was extracted with RIPA lysis buffer. After BCA quantification, 4× loading buffer was added and boiled in a 95° C. metal bath for 10 minutes to denature the protein. 5-10 μg of the denatured protein sample was added to SDS-PAGE. After electrophoresis, separation, transfer, and blocking, PGC-1α, PPARα, CPT1b, and GAPDH primary antibody were added and incubated overnight at 4° C. The next day, the primary antibody was recovered, and the corresponding secondary antibody was added and incubated at room temperature for 1 hour. After washing three times, ECL chemiluminescent solution was added to the strips, and immunoblotting analysis was performed using a Tanon gel imager. ImageJ software was used to perform grayscale analysis of the immunoblot bands, GAPDH was used as an internal reference for correction, and the relative expression content of the protein was calculated. The experiment was divided into DMSO group (DMSO treatment group with content not exceeding 0.5%), E50 (50 μM EMPA treatment group), M200 (200 μM menthol treatment group), and E50+M200 (50 μM empagliflozin+200 μM menthol treatment group).
(Immunoblotting shows a protein as a band on a membrane.)

This note sets out measurements from patent US20250360091A1, “COMBINATION OF SGLT2 INHIBITOR AND MENTHOL AND USE THEREOF IN TREATMENT OF HEART DISEASE” (EAST CHINA UNIVERSITY OF SCIENCE AND TECHNOLOGY, priority 2023, published 2025).

Take `OC[C@H]1O[C@@H](c2ccc(Cl)c(Cc3ccc(O[C@H]4CCOC4)cc3)c2)[C@H](O)[C@@H](O)[C@@H]1O` [empagliflozin]: the “effective concentration of empagliflozin (cell survival)” value in experiment [1] amounted to 50 µM. For the same compound, the “myocardial hypertrophy (heart weight to body weight ratio)” value in experiment [2] (EMPA 30 mg/kg, 4 weeks) is given as “significantly improves myocardial hypertrophy”. The “mouse deaths during the experiment (survival)” value in experiment [2] (EMPA 30 mg/kg, gavage once daily for 4 weeks) was “one mouse died”. The “cardiac function (ejection fraction, fractional shortening, LV diameters)” value in experiment [2] (empagliflozin 30 mg/kg, 4 weeks) is recorded as “significantly improves TAC-induced cardiac dysfunction”. Besides, in experiment [2] (empagliflozin alone 30 mg/kg, 4 weeks), the “exercise tolerance (grip strength, rotarod, forearm suspension)” value is recorded as “cannot improve the exercise tolerance”.

Consider `CC(C)[C@@H]1CC[C@@H](C)C[C@H]1O` [menthol, L-menthol], for which, in experiment [3], the “expression of PCG-1α/PPARα” value is given as “significantly increase the expression” and the “expression of fatty acid transporter CPT1b” value is reported as “upregulate the expression”.
